What was measured:
Type in all cases: cell-based, human
MCF-7 cells [1] = experiment: Cell growth (CCK-8); conditions: 75 μmol/l peptide, MCF-7, CCK-8; means of three experiments (Fig. 1b)
Procedure: (§1) Cell growth was analyzed using 2-(2-methoxy-4-nitrophenyl)-3-(4-nitroph enyl)-5-(2,4-disulfophenyl)-2H-tetrazolium, monosodium salt, and the Cell Counting Kit-8 (CCK-8, Sigma). […] After culturing for another 48 hr, cell growth was analyzed by CCK-8 and the optical density was detected at 450 nm. The growth ratio was normalized to the cells without treatment.

MDA-MB-231 cells = experiment: Cell growth (CCK-8); conditions: 75 μmol/l peptide, MDA-MB-231, CCK-8; means of three experiments (Fig. 1b)
Procedure: as §1

MCF-7 cells [2] = experiment: Cell cycle analysis, sub-G1 (propidium iodide, flow cytometry); conditions: MCF-7, 100 μmol/l peptide, flow cytometry (Fig. 3a)
Procedure: MCF-7 and MDA-MB-231 cells were plated in 6-well plates for 24 hr, and the medium was replaced with fresh culture medium containing 100 μmol/l peptide. After incubation for 24 hr, the cells were harvested by trypsinization and then fixed with 70% 4 °C ethanol. Intracellular DNA was stained with […] propidium iodide in the dark for 30 min at room temperature, and the percentages of sub-G1 cells were determined by flow cytometry (BD LSRII analyzer; BD Biosciences).

| Substance | cell growth (MCF-7 cells [1]) | cell growth (MDA-MB-231 cells) | sub-G1 phase region (pro-apoptotic effect) (MCF-7 cells [2]) [%] |
| --- | --- | --- | --- |
| H-TAT-NLS-GGGDPELCATDEMIPFKDEG-NH2 [TAT-NLS-BLBD-3] | inhibited the growth | inhibited the growth | – |
| H-TAT-NLS-GTDEAAAA-NH2 [TAT-NLS-BLBD-6m, mutated version of TAT-NLS-BLBD-6 (GTDEAAAA), used as control peptide] | did not affect the growth | did not affect the growth | 7.35 |
